PubChem BioAssay AID977621 (Broad Institute, 2014)
Inconclusive results are not listed. Calls of active or inactive are those of the source.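 Rule for the calls: active = Wild-type ribosome reporter drop at least double the humanized mutant ribosome reporter drop, growth loss under a set limit; inconclusive = no clear call, values can overlap the other calls; inactive = the rest.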

System: E. coli wild-type GFP strain growth, fluorescence, 24 h
Test: growth inhibition of wild-type GFP E. coli, dose response, H69 mutant RFP, cherry-pick (AID 977621);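 note: wild-type GFP and H69 mutant RFP strains grown together 50/50 in each well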
[1] = E. coli mixed culture, 24 h, measured here: total growth OD600, test 2

In the case of `CC(C)CN(C(=O)c1cc([N+](=O)[O-])cc([N+](=O)[O-])c1)C1CCS(=O)(=O)C1` (stereo not drawn), the AC50 [1] is reported as > 100 µM.

With `COC(=O)c1sc(-c2ccc(C(C)(C)C)cc2)cc1NC(=O)c1ccccc1C(=O)O` the AC50 [1] was > 100 µM.

For `NC(=O)c1cc(NC(=O)c2cc(Br)c(Br)s2)cc(C(N)=O)c1`, the AC50 was > 100 µM (inactive).

With `Cc1cccc(CSCC(=O)N2CCN(S(=O)(=O)c3ccccc3C#N)CC2)c1` the AC50 was > 100 µM (inactive).

With `O=C(c1ccccc1)c1ccc2nc(-c3ccc(NC(=O)c4ccccc4Br)cc3)[nH]c2c1` the AC50 was > 100 µM (inactive) and the AC50 [1] was > 100 µM.

For `O=C(Cc1coc2cc(O)ccc12)N1CCN(S(=O)(=O)c2ccc(Br)cc2)CC1`, the AC50 was > 100 µM (inactive) and the AC50 [1] was 42.2 µM.

`CCCN(CC(=O)Nc1ccccc1C)C(=O)c1cccc(S(=O)(=O)N2CCc3ccccc3C2)c1` was tested, and the AC50 was > 100 µM (inactive) and the AC50 [1] was 40.8 µM.

In the case of `COc1ccc(OC)c(C(=O)COC(=O)c2ccc([N+](=O)[O-])o2)c1`, the AC50 is reported as > 100 µM (inactive) and the AC50 [1] is reported as > 100 µM.

For `CC(C)(C)NC(=O)C(c1ccncc1)N(Cc1ccc(F)cc1)C(=O)c1ccc(-c2ccccc2)[nH]1` (stereo not drawn), the AC50 [1] was > 100 µM.

For `CC(C)Nc1nnc(SCC(=O)Nc2sccc2C#N)s1`, the AC50 was > 100 µM (inactive).

`CCOC(=O)c1ccc(CC(=O)c2oc3cc(O)ccc3c2C)o1` was tested, and the AC50 was > 100 µM (inactive).

In the case of `O=C(COC(=O)c1cccc(S(=O)(=O)N2CCCCC2)c1)NCc1cccc(Cl)c1`, the AC50 is reported as > 100 µM (inactive).

For `CC(C)=C(c1ccc(Cl)cc1)c1c(N)ncnc1N`, the AC50 was > 100 µM (inactive).

With `COc1cc(CO)cc(Br)c1OCC(=O)Nc1cccc2ccccc12` the AC50 was > 100 µM (inactive).

Work on `O=C1NC(CCc2ccccc2)C(=O)N1Cc1cccc2ccccc12` (stereo not drawn) yielded an AC50 [1] of 50 µM.

For `CSc1nc(SCCN(C)C)c2c3c(sc2n1)COC(C)(C)C3`, the AC50 was > 100 µM (inactive) and the AC50 [1] was > 100 µM.

`CC(C)(C)c1ccc(CCC2OCC(CN3CCOCC3)O2)cc1` (stereo not drawn) was tested, and the AC50 was > 100 µM (inactive).

`COC(=O)c1ccccc1OCCOCCOc1cccc2ccc(C)nc12` was tested, and the AC50 was > 100 µM (inactive).

`CC(=O)c1ccc(OCC(=O)Nc2ccc3c(c2)CCC3)cc1` was tested, and the AC50 [1] was > 100 µM.

For `CCCCSc1nc(N)c(C#N)c(-c2cccs2)c1C#N`, the AC50 was > 100 µM (inactive).

For `COC(=O)[C@H](Cc1c[nH]c2ccccc12)NCc1cccc(B(O)O)c1`, the AC50 was > 100 µM (inactive) and the AC50 [1] was > 100 µM.

In the case of `Cc1noc(C)c1NC(=O)Nc1ccc2c(c1)C(=O)N([C@H](C)CO)C[C@H](C)[C@H](CN(C)C(=O)Nc1ccc3c(c1)OCO3)OCCCC[C@H](C)O2`, the AC50 [1] is reported as > 100 µM.

`CCOc1ccc2nc(NC(=O)CSc3nc(SC)ns3)sc2c1` was tested, and the AC50 [1] was > 100 µM.

For `Cc1ccc(S(=O)(=O)NC(C)C(=O)NCc2ccc(Cl)cc2)cc1` (stereo not drawn), the AC50 was > 100 µM (inactive) and the AC50 [1] was > 100 µM.

With `COc1ccc(-c2nnn(CC(=O)N3CCN(c4ccccc4OC)CC3)n2)cc1OC` the AC50 was > 100 µM (inactive).

For `CSc1nc2ccc(NC(=O)c3c(-c4ccccc4)noc3C)cc2s1`, the AC50 [1] was 46.5 µM.

In the case of `O=C(C[C@H]1CC[C@@H]2[C@H](COC[C@@H](O)CN2C(=O)Nc2cc(Cl)cc(Cl)c2)O1)N1CCOCC1`, the AC50 is reported as > 100 µM (inactive).

`O=C1c2ccccc2C(c2nnnn2Cc2ccccc2)N1Cc1cccc(F)c1` (stereo not drawn) was tested, and the AC50 [1] was > 100 µM.

With `Cc1ccc(-n2nnnc2-c2ccccc2Br)cc1` the AC50 was > 100 µM (inactive) and the AC50 [1] was 46 µM.

For `O=C(CN1CCC(n2nnc3cc(F)ccc32)CC1)N1CCc2ccccc2C1`, the AC50 was > 100 µM (inactive).

In the case of `Cc1cccc(-c2ccc([C@H]3[C@@H](CO)N4CCCCN(S(=O)(=O)c5ccccc5C)C[C@H]34)cc2)c1`, the AC50 [1] is reported as 27.2 µM.

For `O=C(Cc1cccnc1)N1CC(=O)N2[C@H](C1)[C@@H](c1ccc(C3=CCCCC3)cc1)[C@@H]2CO`, the AC50 was > 100 µM (inactive) and the AC50 [1] was > 100 µM.

For `NC(=O)c1nsc(C(=O)N(c2ccccc2F)C(C(=O)NCc2ccc(F)cc2)c2ccc(O)cc2)c1N` (stereo not drawn), the AC50 was > 100 µM (inactive) and the AC50 [1] was 47 µM.

`Cc1cc(C(=O)c2ccc3ccccc3c2)c(C)o1` was tested, and the AC50 was > 100 µM (inactive).

`CCCCc1cc2c(cc1NC(=O)CN1CCCCC1)OCCO2` was tested, and the AC50 was > 100 µM (inactive) and the AC50 [1] was > 100 µM.

In the case of `Cc1cc(Br)ccc1SCC(=O)OCC(=O)NCc1ccco1`, the AC50 is reported as > 100 µM (inactive).

In the case of `COc1ccccc1Cn1c(=S)[nH]c2ccc(F)cc2c1=O`, the AC50 is reported as > 100 µM (inactive).

`CC1(C(=O)NS(=O)(=O)c2cccc(C#N)c2)CCN1C(=O)C1(c2ccc(Cl)cc2)CCC1` (stereo not drawn) was tested, and the AC50 was > 100 µM (inactive) and the AC50 [1] was > 100 µM.

`CN1C(=O)c2cc(NC(=O)c3cccc(F)c3)ccc2OC[C@H]2O[C@@H](CC(=O)N3CCc4ccccc4C3)CC[C@@H]21` was tested, and the AC50 was > 100 µM (inactive).

With `Cc1cccc(C)c1OCc1n[nH]c(=S)n1-c1ccccc1` the AC50 was > 100 µM (inactive) and the AC50 [1] was 44.8 µM.

`COCC#Cc1ccc2c(c1)O[C@@H](CN(C)S(=O)(=O)c1cccc(F)c1)[C@@H](C)CN([C@H](C)CO)S2(=O)=O` showed an AC50 [1] of 51.3 µM.

`Cc1nc(N2CCCCC2)sc1C(=O)c1ccc(SCCO)c([N+](=O)[O-])c1` was tested, and the AC50 was > 100 µM (inactive) and the AC50 [1] was 34.5 µM.

In the case of `CN(c1ccc(C(=O)NCc2cccs2)cc1)S(=O)(=O)c1ccccc1`, the AC50 [1] is reported as < 0.6 µM.

With `O=[N+]([O-])c1ccc(N2CCOCC2)c2c1no[n+]2[O-]` the AC50 was > 100 µM (inactive).

`CCN(c1ccccc1)S(=O)(=O)c1ccc(Cl)c(NC(=O)CSc2n[nH]c(N)n2)c1` was tested, and the AC50 was > 100 µM (inactive).

With `COc1ccc(OC)c(S(=O)(=O)Nc2cccc3ccc(O)cc23)c1` the AC50 [1] was > 100 µM.

In the case of `COc1ccc(C2CC(=O)Oc3cc(C)cc(C)c32)cc1` (stereo not drawn), the AC50 [1] is reported as > 100 µM.

With `Nc1nn(-c2ccccc2)c2ccc([N+](=O)[O-])cc12` the AC50 was > 100 µM (inactive).

`COc1cccc(-c2ccc(SCc3ccccn3)nn2)c1` was tested, and the AC50 was > 100 µM (inactive) and the AC50 [1] was 48.2 µM.

With `CCC(=O)c1ccc(OCC(=O)Nc2nc(C)cs2)cc1` the AC50 was > 100 µM (inactive) and the AC50 [1] was > 100 µM.

In the case of `COc1ccccc1C1CCN(C(=O)c2cccs2)CC1`, the AC50 [1] is reported as > 100 µM.

With `O=C(COC(=O)C12CC3CC(CC(O)(C3)C1)C2)NCCc1ccc(Cl)cc1` the AC50 was > 100 µM (inactive).

For `CCOCC(=O)Nc1c(C(=O)Nc2ccc3c(c2)OCCO3)oc2ccccc12`, the AC50 was > 100 µM (inactive).

In the case of `O=C(NCCc1ccc(Cl)cc1)c1ccc2nc[nH]c2c1`, the AC50 is reported as > 100 µM (inactive).

For `CCOc1ccccc1N(CC(=O)Nc1ccccc1F)S(=O)(=O)c1ccccc1`, the AC50 was > 100 µM (inactive) and the AC50 [1] was 15.6 µM.

With `Fc1cccc(Cc2noc(CN3CCCCC3CCc3ccccn3)n2)c1` (stereo not drawn) the AC50 was > 100 µM (inactive) and the AC50 [1] was > 100 µM.

For `O=C(c1ccc(Cl)cc1)N1CCN(c2cccc3[nH]ccc23)CC1`, the AC50 was > 100 µM (inactive).

With `CCN(c1cccc2ccccc12)S(=O)(=O)c1ccc(Cl)nc1` the AC50 was > 100 µM (inactive).

With `COc1ccc(CC(=O)NC(C)c2ccc3ccccc3c2)cc1` (stereo not drawn) the AC50 was > 100 µM (inactive).

In the case of `O=C(Nc1cc(S(=O)(=O)N2CCCCC2)ccc1N1CCCCC1)C1CC1`, the AC50 [1] is reported as > 100 µM.

For `CC1=Nc2cc(C(=O)NCC3CCCO3)ccc2Sc2ccc(Br)cc21` (stereo not drawn), the AC50 was > 100 µM (inactive).

For `CCCCCCCNC(=O)c1ccc(N2CCC3(CC2)OCCO3)c([N+](=O)[O-])c1`, the AC50 was > 100 µM (inactive) and the AC50 [1] was 35.4 µM.

With `CCOc1ccccc1C(=O)OCC(=O)NCCc1ccc(OC)cc1` the AC50 was > 100 µM (inactive).

In the case of `Cc1ccc(Oc2ccc(S(=O)(=O)N3CCOCC3)cc2C(N)=O)cc1C`, the AC50 is reported as > 100 µM (inactive).
